The data set is described as follows: Human HepG2 cell viability assay in 384 well format. The format is toxicity, cell-based. Also on record: dose 125 nL, time 70.5 hour; concentration not given beside the values. The conditions noted are these: HepG2 cells, read-out: Inhibition.

`CCCc1nnc2sc(C3CCN(CC)CC3)nn12`: the cytotoxicity at 70.5 h is -13.4%. Then `COc1ccc2c(c1)OCC(Cc1ccc(N(C)C)nc1)C2` (configuration not stated), with -4.83%; and `N#CC1(c2ccccc2)CCN(C(=O)CN2C(=O)CCNC2=O)CC1`, with -0.486%. Regarding `O=C1O[C@@H]2CN(c3ccncc3)C[C@@H]2N1CCCc1ccc(F)cc1`, the cytotoxicity at 70.5 h is -6.08%.

Take `CN1CC2(CCN(C(=O)c3cc(-n4cccn4)ccc3Cl)CC2)OC1=O`: the cytotoxicity at 70.5 h is 7.23%. As to `CCOC(=O)c1n[nH]cc1CN1CCOC(Cc2ccccc2)C1` (configuration not stated), the cytotoxicity at 70.5 h was 0.539%. Regarding `O=C(c1ccc(Cn2cnnn2)cc1)N1CC[C@H](CO)[C@H](O)C1`, the cytotoxicity at 70.5 h is -8.21%. Turning to `c1cncc(CNc2ncnc3c2CCN(Cc2ccsc2)CC3)c1`, the cytotoxicity at 70.5 h is -5.06%. Next, `CCCc1nc(C)cc(NCCc2nnc(N)s2)n1`: -12.9%.

On to `CCSCC(C)NCc1cc(-c2ccco2)on1` (configuration not stated), for which the cytotoxicity at 70.5 h was -10.3%.

Regarding `Cc1nc(O)cc(CCNc2nccc(CCC(F)(F)F)n2)n1`, the cytotoxicity at 70.5 h is -8.71%. As for `Cc1ccccc1CN1CCN(C(=O)CCn2ccccc2=O)CC1`, the cytotoxicity at 70.5 h was -12.1%. Turning to `O=C1OCCN1Cc1cccc(C(F)(F)F)c1F`, the cytotoxicity at 70.5 h was -10.3%. Regarding `CCCn1c(C)c(CC(=O)NCC(C)O)c2c1CC(C)(C)CC2=O` (configuration not stated), the cytotoxicity at 70.5 h stood at 2.45%.

Regarding `Cc1cc(N(C)Cc2ncc[nH]2)nc(-c2cccnc2)n1`, the cytotoxicity at 70.5 h was -11.2%. As to `CC(C)(CN1C[C@H](Nc2ncccn2)[C@@H](C2CC2)C1)N1CCOCC1`, the cytotoxicity at 70.5 h is -11.6%. Next, `CCc1ncc(C(=O)N(C)CCc2nc3cc(OC)ccc3[nH]2)cn1`: 11.2%; `Cc1cc(C(=O)NCCc2cn3nc(C)sc3n2)c(C)o1`: -5.61%. Then `Cc1ccc(C(=O)O)cc1CNC(=O)CN1CC(C)(C)[C@@](C)(O)C1`, with -6.75%; and `O=C(NCCCOc1cccnc1)c1cn(CCc2ccccc2)nn1`, with -7.58%. Next, `OC1(Cn2ccnc2)CCN(C[C@]2(O)CCCN3CCCC[C@@H]32)CC1`: 11.3%; `Cc1ccc(CN2C[C@H]3OC(=O)N(Cc4ccccn4)[C@H]3C2)o1`: 2.3%. For `Cc1ccc(C(=O)N2CCC(c3nccn3Cc3ccncc3)CC2)s1`, the cytotoxicity at 70.5 h is -8.45%. Turning to `CCN1CCC(CC(=O)NCCc2nc(O)cc(O)n2)CC1`, the cytotoxicity at 70.5 h is 16.1%. As to `CCN(Cc1cnn(C)c1)C[C@H]1CC[C@@H](Cc2ccc(C)nc2)O1`, the cytotoxicity at 70.5 h is -16.5%. With `c1ncc(-c2cn(CCSc3cnn[nH]3)nn2)cn1`, the cytotoxicity at 70.5 h was -6.48%. Then `CCOCc1nc2c(c(N3CCCn4nc(C)cc4C3)n1)CCNCC2`, with 23.6%; and `CCCc1cc(N2CCC(NCC3(O)CCN(C)CC3)CC2)nc(C)n1`, with -6.43%. As for `CN(Cc1cc2cc(F)ccc2[nH]1)C(=O)C1CC(=O)N(C2CC2)C1` (configuration not stated), the cytotoxicity at 70.5 h was -2.65%. Then `CCc1nc(N)sc1C(=O)N1CCC(c2cc(O)nc(C)n2)CC1`, with 20.6%; and `CC(C)CN1CCN(Cc2nc3c(s2)CCCC3)[C@H]2CS(=O)(=O)C[C@H]21`, with 10.7%. Then `N#Cc1cnc(N2Cc3cnn(Cc4ccc(F)cc4)c3C2)nc1N`, with -6.63%; and `Cc1c(C(C)NC2CSCCSC2)cnn1-c1ccc(F)cc1F` (configuration not stated), with -9.32%. On to `CN1C[C@H]2CC[C@@H]1CN(C(=O)COCc1nc3cc(F)ccc3[nH]1)C2`, for which the cytotoxicity at 70.5 h is 27.3%. Next, `COC(C)(C)CC(C)NCc1nncn1C1CCCCC1` (configuration not stated): -7.83%; `O=C1OC2(CCNCC2)CN1CC(=O)N1CCC1c1cccs1` (configuration not stated): -6.81%.

On to `Cc1nc(CC(C)C)cc(C(=O)N2C[C@@H](CN(C)C)[C@@H](CO)C2)n1`, for which the cytotoxicity at 70.5 h is 6.25%.

Regarding `CCc1nc(C)c(-c2nccn2CC2CCCCO2)[nH]1` (configuration not stated), the cytotoxicity at 70.5 h was -10.5%.

Take `c1cc2c(cc1Cn1cc(C3CCCNC3)nn1)CCCO2` (configuration not stated): the cytotoxicity at 70.5 h is -15.2%. For `C[C@@H]1CN(C(=O)c2cc(Cn3cnc4ccccc43)on2)C[C@H](C)O1`, the cytotoxicity at 70.5 h is -5.79%. As for `O=C(NCC1CCN(Cc2cc3ccccc3[nH]2)C1)C1CCCCC1` (configuration not stated), the cytotoxicity at 70.5 h is -19.6%. Turning to `COc1ccc(-n2nc(C(C)C)nc2Cn2cncn2)cc1`, the cytotoxicity at 70.5 h was -8.35%. As to `CSCCCN1CCC(c2nnc(Cn3ccnc3)n2C2CC2)CC1`, the cytotoxicity at 70.5 h is -0.0518%. With `CCCN1CCC(Cc2nc(CN3CCN(C)CC3)no2)CC1`, the cytotoxicity at 70.5 h is -5.37%. Take `CCN(Cc1ccncc1)C(=O)c1cc(C)c(C)c(S(N)(=O)=O)c1`: the cytotoxicity at 70.5 h is -2.98%. As to `Cc1ncsc1CCN(C)C(=O)c1c(O)cccc1O`, the cytotoxicity at 70.5 h was determined as 10.9%. As to `CCc1nn(C)c(Cl)c1CN1CCC(c2cc(O)nc(C)n2)CC1`, the cytotoxicity at 70.5 h is -10.5%. In the case of `COc1ccc(Cl)cc1-n1cnc(CCNC(C)=O)c1`, the cytotoxicity at 70.5 h was -4.49%.

Consider `COc1cccc(S(=O)(=O)N2C[C@@H](N(C)C)[C@H](C(C)C)C2)c1`, for which the cytotoxicity at 70.5 h is -0.713%. Take `CCn1c(CN(C)C)nnc1C1CCN(c2nccc(NC)n2)CC1`: the cytotoxicity at 70.5 h is -2.22%. In the case of `Cc1cc(NCC2CCS(=O)(=O)C2)n2nc(C)cc2n1` (configuration not stated), the cytotoxicity at 70.5 h amounted to 12.6%. Consider `O=C(Nc1cnn(CC(=O)N2CCCCO2)c1)c1ccccn1`, for which the cytotoxicity at 70.5 h was 2.98%.

Turning to `O=C(Cn1cccn1)NCC1CCN(Cc2cc3ccccc3[nH]2)C1` (configuration not stated), the cytotoxicity at 70.5 h was -14.4%. Next, `N[C@H]1CN(C(=O)c2ccc(CO)cc2)C[C@@H]1C1CC1`: 6.41%; `CN(CC1CCCCO1)c1ncnc2cc(F)ccc12` (configuration not stated): -9.25%; `CCc1ncc(C(=O)N(C)C(C)c2ccc3c(c2)OCCO3)cn1` (configuration not stated): 1.19%. As for `Cc1ccccc1OCC(O)C(=O)N1CCC2(CC1)CN(C)C(=O)O2` (configuration not stated), the cytotoxicity at 70.5 h is -4.24%.

`O=C1CC[C@H]2CN(c3ncc(F)cn3)CC[C@H]2N1CCc1ccccc1`: the cytotoxicity at 70.5 h was -6.02%. Then `Cc1nnc(CCNC(=O)[C@H]2CNC[C@@H](C(=O)N3CCCC3)C2)s1`, with -6.7%.

For the compound `CC1(c2ccccc2)CCC(=O)N(CCN2CCOC2=O)C1` (configuration not stated), the cytotoxicity at 70.5 h was -2.39%. On to `COCCOCC(=O)N1CCC(c2ccccc2F)C1` (configuration not stated), for which the cytotoxicity at 70.5 h was -9.1%. `CC(C)(C)SCCNC(=O)[C@@]12CNC[C@@H]1CN(S(C)(=O)=O)C2`: the cytotoxicity at 70.5 h is -2.8%.

As to `O=C(O)c1cc(-c2ccoc2)cc(S(=O)(=O)N2CCSCC2)c1`, the cytotoxicity at 70.5 h is -4.7%. For `Cc1cccc(-n2nc(CC(C)C)nc2[C@H](C)O)c1`, the cytotoxicity at 70.5 h was found to be 16.4%. Consider `CN(CCNC(=O)c1cnc(-c2ccncc2)nc1)S(C)(=O)=O`, for which the cytotoxicity at 70.5 h was -7.17%. Take `O=C(CCN1CCCCC1)N1CCC(Cc2ccc(CO)cc2)C1` (configuration not stated): the cytotoxicity at 70.5 h was -6.38%. Then `CN(Cc1ccon1)c1nc(-c2ccccn2)nc2c1CCNCC2`, with 12.3%. Consider `O=C(CN1C(=O)CCNC1=O)N1CCOC(c2ccc(F)cc2)C1` (configuration not stated), for which the cytotoxicity at 70.5 h is -2.25%. Regarding `COc1cccc(-c2ncc(CN3CC[C@H]4CC[C@@H](C3)N4)s2)c1`, the cytotoxicity at 70.5 h worked out at 9.35%.

As to `CCN(Cc1ccc(-c2ccccn2)cc1)C1CCS(=O)(=O)C1` (configuration not stated), the cytotoxicity at 70.5 h is -1.78%. As to `O=C(NCc1csc(-c2cnccn2)n1)c1cnn2c1CCCC2`, the cytotoxicity at 70.5 h is -5.37%. Regarding `COCCN1CCN(C(=O)c2ccc(C)cc2F)[C@H]2CS(=O)(=O)C[C@H]21`, the cytotoxicity at 70.5 h was -8.53%. Then `CC(C)N(CCO)C(=O)C1CCC(=O)N(CCc2cccc(F)c2)C1` (configuration not stated), with -10%; and `Cc1ccc(CN2CCN(Cc3cc(C)n[nH]3)CC2CCO)cc1` (configuration not stated), with 12.1%; and `CCn1nc(CC(C)C)cc1C(=O)N1CCCC(C#N)C1` (configuration not stated), with 0.732%. As for `CC(=O)N1C[C@H](NS(=O)(=O)Cc2cccc(Cl)c2)[C@@H](C(C)C)C1`, the cytotoxicity at 70.5 h is -6.96%. As for `CCOc1ccnc(NCc2nc(C)cc(=O)[nH]2)n1`, the cytotoxicity at 70.5 h is -6.71%. For the compound `Cc1cc(C)c(Cn2cncn2)cc1CN1CC[C@H]2CC[C@@H](C1)N2`, the cytotoxicity at 70.5 h is 2.8%. Take `CCC[C@H]1CN(Cc2nccn2C)C[C@@H]1NC(=O)C1(COC)CCC1`: the cytotoxicity at 70.5 h is -4.15%.

On to `O=C(NCc1cccnc1N1CCCC(O)C1)c1ccsc1` (configuration not stated), for which the cytotoxicity at 70.5 h is -20.7%. `Cc1cc2nc(C(C)C)cc(N3CCC(N(C)C)C3)n2n1` (configuration not stated): the cytotoxicity at 70.5 h was found to be 2.59%. As to `Cc1cc(C2CCC2)nc(N2CCC3(CC2)OCCCC3O)n1` (configuration not stated), the cytotoxicity at 70.5 h is -8.75%. For the compound `Cc1[nH]nc(CCC(=O)N2C[C@H]3CC[C@@H]2CN(C(=O)N(C)C)C3)c1C`, the cytotoxicity at 70.5 h was -8.2%. On to `O=C(O)CN(Cc1ccsc1)CC1CCCO1` (configuration not stated), for which the cytotoxicity at 70.5 h was -2.27%. In the case of `CC1(C)CC(CN2CCC3(CCC(=O)N(C4CCC4)C3)CC2)CCO1` (configuration not stated), the cytotoxicity at 70.5 h was -9.04%.

Consider `O=C(CCCN1CCCCC1)NC(C(=O)O)c1cccc(F)c1` (configuration not stated), for which the cytotoxicity at 70.5 h is -6.49%. Next, `CCc1nc2c(NCC3COc4c(cccc4OC)C3)ncnc2o1` (configuration not stated): -4.9%; `COCc1noc(CN2CC(Cc3ccccc3)CC2=O)n1` (configuration not stated): -20.6%; `CCc1ccc(CN(C)Cc2cnc(S(=O)(=O)CC)n2CCOC)cc1`: -7.48%. Take `Cc1ccc(C(=O)N2CCC3(CCC(=O)N(C(C)C)C3)CC2)c(O)c1`: the cytotoxicity at 70.5 h came to 29.9%. With `CC(O)c1cn(CC2CCN(C(=O)c3cscn3)CC2)nn1` (configuration not stated), the cytotoxicity at 70.5 h is -3.74%. In the case of `CCSCCn1cc(-c2ncc[nH]2)nn1`, the cytotoxicity at 70.5 h is -17.4%. For `CCOC(=O)c1coc(N2CCN(Cc3ccc(C)cc3)C(=O)C2)n1`, the cytotoxicity at 70.5 h stood at 0.779%. Then `COCCN(Cc1cnn(C)c1)c1nc2c(s1)c(C)nn2C`, with 3.84%; and `COCCn1cnnc1Cn1ccnc1-c1ccoc1`, with 27.2%. Take `CSCCC(=O)N(C/C=C/c1ccccc1)CCO`: the cytotoxicity at 70.5 h is -5.02%. Take `Cc1nn(CCC(=O)NC(C(=O)O)c2c(C)n[nH]c2C)c(C)c1C` (configuration not stated): the cytotoxicity at 70.5 h is -3.08%.

(Values after ChEMBL document CHEMBL3507680, “University of Dundee, Gates Library screen for HepG2 cell viability”.)
